Assay results from ChEMBL document CHEMBL1139792, “Correlation of carboxylic acid pKa to protein binding and antibacterial activity of a novel class of bacterial translation inhibitors” (Bioorg Med Chem Lett, 2007).
Converted amounts (≈) assume the structure as drawn. The source made the active and inactive calls. The calls are words filed in the database; no cut-off is given here.

Legend:
Staphylococcus aureus [1] = experiment: Antibacterial activity against Staphylococcus aureus UC9218 in presence of 10% human serum; type: functional
Staphylococcus aureus [2] = experiment: Antibacterial activity against Staphylococcus aureus UC9218; type: functional
Staphylococcus aureus [3] = experiment: Antibacterial activity against Staphylococcus aureus UC9218 in presence of 5% human serum; type: functional
[4] = Acid dissociation constant, pKa by pressure-assisted capillary electrophoresis method; type: physicochemical
Albumin [5] = target: T1, Albumin (Homo sapiens, UniProt P02768); experiment: Displacement of fluorescent dansyl sarcosine from human serum albumin site II on subdomain IIIA
Albumin [6] = target: T1, Albumin; experiment: Binding to high affinity site of human serum albumin; type: ADME
Staphylococcus aureus [7] = experiment: Antibacterial activity against Staphylococcus aureus in mouse bacteremia model; type: functional

T1 sequence (P02768 whole entry): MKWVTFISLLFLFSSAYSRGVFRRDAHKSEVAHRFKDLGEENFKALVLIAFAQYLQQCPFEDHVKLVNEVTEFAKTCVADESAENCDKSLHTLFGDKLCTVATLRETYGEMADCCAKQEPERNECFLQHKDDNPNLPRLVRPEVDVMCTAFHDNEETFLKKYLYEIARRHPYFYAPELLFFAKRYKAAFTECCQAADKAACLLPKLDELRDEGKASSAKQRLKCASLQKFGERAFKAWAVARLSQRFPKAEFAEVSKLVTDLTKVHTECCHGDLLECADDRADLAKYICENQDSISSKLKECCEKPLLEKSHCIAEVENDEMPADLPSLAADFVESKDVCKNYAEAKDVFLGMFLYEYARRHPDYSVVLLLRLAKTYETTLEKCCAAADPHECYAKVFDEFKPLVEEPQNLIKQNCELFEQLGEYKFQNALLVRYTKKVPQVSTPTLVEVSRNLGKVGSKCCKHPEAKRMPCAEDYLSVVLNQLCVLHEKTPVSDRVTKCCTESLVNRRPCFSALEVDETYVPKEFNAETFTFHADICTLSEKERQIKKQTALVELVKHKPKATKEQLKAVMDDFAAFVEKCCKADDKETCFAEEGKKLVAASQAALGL

MIC (Staphylococcus aureus [1]) | MIC (Staphylococcus aureus [2]) | MIC (Staphylococcus aureus [3]) | pKa [4] | Kd (Albumin [5]) | Kd (Albumin [6]) | SMILES | ED50 (Staphylococcus aureus [7]) | Activity (Staphylococcus aureus [7])
4 µg/mL | 0.125 µg/mL (≈ 0.329 µM) | – | – | – | – | N#Cc1ccc(NC(=O)c2cc(SCc3ccccc3)on2)c(C(=O)O)c1 | – | –
– | > 128 µg/mL | > 128 µg/mL | 3.18 | 6 µM | – | O=C(Nc1ccccc1C(=O)O)c1cccc(S(=O)(=O)N2CCOCC2)c1 | – | –
4 µg/mL | 1 µg/mL (≈ 2.41 µM) | 2 µg/mL | 2.56 | 5.3 µM | 14 µM | N#Cc1ccc(NC(=O)c2ccc(S(=O)(=O)N3CCOCC3)cc2)c(C(=O)O)c1 | > 200 mg/kg | –
– | 4 µg/mL (≈ 9.41 µM) | 32 µg/mL | 2.81 | 6.5 µM | – | O=C(Nc1ccc(Cl)cc1C(=O)O)c1cccc(S(=O)(=O)N2CCOCC2)c1 | – | –
8 µg/mL | 1 µg/mL (≈ 2.5 µM) | – | – | – | – | N#Cc1ccc(NC(=O)c2ccc(S(=O)(=O)N3CCCC3)cc2)c(C(=O)O)c1 | – | inactive
– | 4 µg/mL (≈ 8.52 µM) | 32 µg/mL | 2.79 | 4.8 µM | – | O=C(Nc1ccc(Br)cc1C(=O)O)c1cccc(S(=O)(=O)N2CCOCC2)c1 | – | –
> 64 µg/mL | 32 µg/mL (≈ 70.4 µM) | – | – | – | – | CCCN(CCC)S(=O)(=O)c1ccc(C(=O)Nc2cc3ccccc3cc2C(=O)O)cc1 | – | –
– | > 128 µg/mL | > 128 µg/mL | 3.36 | 7.5 µM | – | Cc1ccc(NC(=O)c2cccc(S(=O)(=O)N3CCOCC3)c2)c(C(=O)O)c1 | – | –
– | 4 µg/mL (≈ 9.19 µM) | 16 µg/mL | 3.44 | 4.4 µM | – | O=C(Nc1ccc([N+](=O)[O-])cc1C(=O)O)c1cccc(S(=O)(=O)N2CCOCC2)c1 | – | –
– | > 128 µg/mL | > 128 µg/mL | 3.12 | 8.1 µM | – | COc1ccc(NC(=O)c2cccc(S(=O)(=O)N3CCOCC3)c2)c(C(=O)O)c1 | – | –
64 µg/mL | 0.125 µg/mL (≈ 0.233 µM) | – | – | – | – | O=C(Nc1ccc(Br)cc1C(=O)O)c1ccc(S(=O)(=O)N2CCc3cc(Cl)ccc32)cc1 | – | –
8 µg/mL | 0.125 µg/mL (≈ 0.259 µM) | – | – | – | – | N#Cc1ccc(NC(=O)c2ccc(S(=O)(=O)N3CCc4cc(Cl)ccc43)cc2)c(C(=O)O)c1 | – | inactive
– | 128 µg/mL (≈ 313 µM) | 128 µg/mL | 2.92 | 6.6 µM | – | O=C(Nc1ccc(F)cc1C(=O)O)c1cccc(S(=O)(=O)N2CCOCC2)c1 | – | –
